One experiment addresses c-Rel protein (Homo sapiens (Human), UniProt Q04864). Description: Electrophoretic Mobility Shift Assay (EMSA), Rel/NF-κB DNA binding inhibition. Conditions: 10 nM c-Rel protein, phosphor-labeled CD28RE oligonucleotide. The protocol: Electrophoretic Mobility Shift Assay (EMSA)
DNA binding reaction (20 μL) was carried out in 1×DNA Binding Buffer (10 mM Tris, 40 mM NaCl, 1 mM EDTA, 4% glycerol) with 10 nM c-Rel protein and 0.5 ng phosphor-labeled CD28RE oligonucleotide for 10 minutes at room temperature in 96-well plates. Test compounds, in serial dilutions, were added into each well, and further incubated for 15 minutes before loading onto native 5% polyacrylamide gel. Electrophoresis proceeded for 2.5 hours at 160V. Radioactive signals were quantified using Phospho-Imager. IC50 of compounds of example 1 to 75 were determined by quantifying the intensity of Rel/NF-κB inhibition in EMSA using phospho-imager. An example of EMSA data of the present invention is shown for compound 6 in FIG. 2.
Background: In EMSA bound probe runs differently from free probe, usually more slowly.

The subject of a further experiment is NF-κB. Briefly: NF-κB GFP Assay (NFκB/Jurkat/GFP transcriptional reporter cell line). Format: cell-based. The settings on record: Homo sapiens; NF-κB/Jurkat/GFP reporter cells, TNF-α 5 ng/ml, 24 hours; read-out: NF-KB GFP IC50. The method, then:
NFκB/Jurkat/GFP transcriptional reporter cell line was obtained from SBI System Biosciences. NF-κB/Jurkat/GFP™ Reporter cells (5×10^5 cells) were plated at a concentration of 1 million cells/ml into each well of a 24-well plate. TNF-α (5 ng/ml) was added. Compounds were added via serial dilutions to corresponding wells. After 24 hours, 100 μl of the cells were transferred to a well of a Costar® UV plate (96 well, No lid, w/ UV Transparent Flat Bottom, Corning, N.Y., Cat#3635) and the intensity of GFP fluorescence was measured (Excitation 485+/−20, Emission 528+/−20) in a Synergy™ HT Multi-Detection Microplate Reader (BioTech, Winooski, Vt.). The intensities of GFP measured were plotted against the […].

Sequence of c-Rel protein (Q04864 whole entry): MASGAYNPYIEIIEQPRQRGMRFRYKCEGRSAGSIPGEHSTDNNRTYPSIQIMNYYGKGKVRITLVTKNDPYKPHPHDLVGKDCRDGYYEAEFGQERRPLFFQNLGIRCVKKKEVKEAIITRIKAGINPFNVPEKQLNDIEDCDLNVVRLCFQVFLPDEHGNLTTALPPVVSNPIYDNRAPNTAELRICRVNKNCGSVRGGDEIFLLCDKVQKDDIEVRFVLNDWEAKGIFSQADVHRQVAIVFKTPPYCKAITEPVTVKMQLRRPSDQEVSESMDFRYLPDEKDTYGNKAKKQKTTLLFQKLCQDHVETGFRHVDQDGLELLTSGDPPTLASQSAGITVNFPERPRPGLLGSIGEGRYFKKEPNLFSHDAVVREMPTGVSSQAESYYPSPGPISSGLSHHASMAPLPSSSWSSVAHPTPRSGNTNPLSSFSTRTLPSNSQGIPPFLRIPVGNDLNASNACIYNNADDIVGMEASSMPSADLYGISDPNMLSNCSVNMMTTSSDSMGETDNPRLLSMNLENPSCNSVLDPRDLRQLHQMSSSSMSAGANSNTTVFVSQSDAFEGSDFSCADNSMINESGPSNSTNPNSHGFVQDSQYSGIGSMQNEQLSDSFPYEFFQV

Regarding `COc1cccc2cc3c(=O)[nH]c(=O)nc-3oc12` [Compound 1, 9-methoxy-2H-chromeno[2,3-d]pyrimidine-2,4(3H)-dione], the IC50 (commonly the concentration that inhibits the measured activity by half) on c-Rel protein is under 2 µM; in the experiment with NF-κB it was under 30 µM.

As for `CCOc1cccc2cc3c(=O)[nH]c(=O)nc-3oc12` [Compound 2, 9-ethoxy-2H-chromeno[2,3-d]pyrimidine-2,4(3H)-dione], the half-maximal inhibitory concentration (IC50) on c-Rel protein is under 2 µM; with NF-κB, under 30 µM.

Take `COc1cc(Cl)cc2cc3c(=O)[nH]c(=O)nc-3oc12` [Compound 3, 7-chloro-9-methoxy-2H-chromeno[2,3-d]pyrimidine-2,4(3H)-dione]: the figures for the concentration for half-maximal inhibition (IC50) on c-Rel protein and with NF-κB were under 2 µM and under 30 µM, respectively.

Regarding `COc1cc(Br)cc2cc3c(=O)[nH]c(=O)nc-3oc12` [Compound 4, 7-bromo-9-methoxy-2H-chromeno[2,3-d]pyrimidine-2,4(3H)-dione], the half-inhibitory concentration (IC50) at c-Rel protein was under 2 µM; in the experiment with NF-κB it was under 30 µM.

`CCOc1cc(Cl)cc2cc3c(=O)[nH]c(=O)nc-3oc12` [Compound 5]: the half-maximal inhibitory concentration (IC50) at c-Rel protein is under 2 µM; in the experiment with NF-κB, under 30 µM.

With `COc1ccc2cc3c(=O)[nH]c(=O)nc-3oc2c1` [Compound 6, 8-methoxy-2H-chromeno[2,3-d]pyrimidine-2,4(3H)-dione], the figures for the IC50 at c-Rel protein and with NF-κB were under 1 µM and under 10 µM, respectively.

As to `COc1cc(Cl)cc2cc3c(=O)[nH]c(=S)nc-3oc12` [Compound 7, 7-chloro-9-methoxy-2-thioxo-2H-chromeno[2,3-d]pyrimidin-4(3H)-one], the half-inhibitory concentration (IC50) at c-Rel protein is under 2 µM; in the experiment with NF-κB, under 30 µM.

As for `COc1ccc2cc3c(=O)[nH]c(=S)nc-3oc2c1` [Compound 8, 8-methoxy-2-thioxo-2H-chromeno[2,3-d]pyrimidin-4(3H)-one], the figures for the concentration for half-maximal inhibition (IC50) on c-Rel protein and in the experiment with NF-κB were under 0.5 µM and under 30 µM, respectively.

With `O=c1nc2oc3ccccc3cc-2c(=O)[nH]1` [Compound 9, 2H-chromeno[2,3-d]pyrimidine-2,4(3H)-dione], the IC50 is under 5 µM on c-Rel protein and under 20 µM in the experiment on NF-κB.

Take `COc1ccc2oc3nc(=O)[nH]c(=O)c-3cc2c1` [Compound 10, 7-methoxy-2H-chromeno[2,3-d]pyrimidine-2,4(3H)-dione]: the figures for the 50% inhibitory concentration (IC50) at c-Rel protein and in the experiment with NF-κB were under 1 µM and under 30 µM, respectively.

With `O=c1nc2oc3cc(O)ccc3cc-2c(=O)[nH]1` [Compound 11, 8-hydroxy-2H-chromeno[2,3-d]pyrimidine-2,4(3H)-dione], the IC50 at c-Rel protein was under 1 µM; with NF-κB, under 20 µM.

Consider `Cc1ccc2cc3c(=O)[nH]c(=O)nc-3oc2c1` [Compound 12, 8-methyl-2H-chromeno[2,3-d]pyrimidine-2,4(3H)-dione], for which the half-inhibitory concentration (IC50) on c-Rel protein was under 1 µM; with NF-κB, 7 µM.

Consider `CCOc1ccc2cc3c(=O)[nH]c(=O)nc-3oc2c1` [Compound 13, 8-ethoxy-2H-chromeno[2,3-d]pyrimidine-2,4(3H)-dione], for which the IC50 on c-Rel protein is under 1 µM; in the experiment on NF-κB, 9 µM.

In the case of `COc1cc(OC)c2cc3c(=O)[nH]c(=O)nc-3oc2c1` [Compound 14, 6,8-dimethoxy-2H-chromeno[2,3-d]pyrimidine-2,4(3H)-dione], the IC50 on c-Rel protein is under 1 µM; in the experiment with NF-κB, 8.2 µM.

In the case of `COc1ccc2oc3nc(=S)[nH]c(=O)c-3cc2c1` [Compound 15, 7-methoxy-2-thioxo-2H-chromeno[2,3-d]pyrimidin-4(3H)-one], the half-inhibitory concentration (IC50) is under 0.5 µM on c-Rel protein and under 30 µM in the experiment with NF-κB.

As for `O=c1[nH]c(=S)nc2oc3cc(O)ccc3cc1-2` [Compound 16, 8-hydroxy-2-thioxo-2H-chromeno[2,3-d]pyrimidin-4(3H)-one], the IC50 on c-Rel protein was under 0.5 µM; in the experiment with NF-κB it was under 30 µM.

In the case of `Cc1ccc2cc3c(=O)[nH]c(=S)nc-3oc2c1` [Compound 17, 8-methyl-2-thioxo-2H-chromeno[2,3-d]pyrimidin-4(3H)-one], the results for the half-maximal inhibitory concentration (IC50) on c-Rel protein and in the experiment on NF-κB were under 0.5 µM and under 30 µM, respectively.

As to `COc1cc(OC)c2cc3c(=O)[nH]c(=S)nc-3oc2c1` [Compound 18, 6,8-dimethoxy-2-thioxo-2H-chromeno[2,3-d]pyrimidin-4(3H)-one], on c-Rel protein, the half-maximal inhibitory concentration (IC50) was under 0.5 µM.

Regarding `CCCOc1ccc2cc3c(=O)[nH]c(=O)nc-3oc2c1` [Compound 19, 8-propoxy-2H-chromeno[2,3-d]pyrimidine-2,4(3H)-dione], the values for the IC50 on c-Rel protein and with NF-κB were under 1 µM and under 5 µM, respectively.

In the case of `CCCOc1cc2oc3nc(=O)[nH]c(=O)c-3cc2cc1Cl` [Compound 20, 7-chloro-8-propoxy-2H-chromeno[2,3-d]pyrimidine-2,4(3H)-dione], the figures for the IC50 on c-Rel protein and in the experiment on NF-κB were under 1 µM and under 5 µM, respectively.

As for `CCCCCCOc1ccc2cc3c(=O)[nH]c(=O)nc-3oc2c1` [Compound 21, 8-(n-hexyloxy)-2H-chromeno[2,3-d]pyrimidine-2,4(3H)-dione], the half-inhibitory concentration (IC50) was under 1 µM on c-Rel protein and under 5 µM in the experiment with NF-κB.

Turning to `CCOc1ccc2cc3c(=O)[nH]c(=O)nc-3oc2c1Cl` [Compound 22, 9-chloro-8-ethoxy-2H-chromeno[2,3-d]pyrimidine-2,4(3H)-dione], the concentration for half-maximal inhibition (IC50) at c-Rel protein is under 1 µM; with NF-κB, under 10 µM.

Take `CC(C)COc1ccc2cc3c(=O)[nH]c(=O)nc-3oc2c1` [Compound 23, 8-isobutoxy-2H-chromeno[2,3-d]pyrimidine-2,4(3H)-dione]: the concentration for half-maximal inhibition (IC50) at c-Rel protein was under 1 µM; with NF-κB, under 5 µM.

`CCCCn1c(=O)nc2oc3cc(OCC)ccc3cc-2c1=O` [Compound 24, 3-(n-butyl)-8-ethoxy-2H-chromeno[2,3-d]pyrimidine-2,4(3H)-dione]: the half-inhibitory concentration (IC50) at c-Rel protein is under 1 µM; with NF-κB it was under 30 µM.

Regarding `CCCc1cc2oc3nc(=O)[nH]c(=O)c-3cc2cc1Cl` [Compound 25, 7-chloro-8-propyl-2H-chromeno[2,3-d]pyrimidine-2,4(3H)-dione], the IC50 at c-Rel protein was under 1 µM; in the experiment with NF-κB, under 30 µM.

In the case of `CCCCn1c(=O)nc2oc3cc(OCC)c(Cl)cc3cc-2c1=O` [Compound 26, 3-butyl-7-chloro-8-ethoxy-2H-chromeno[2,3-d]pyrimidine-2,4(3H)-dione], the IC50 at c-Rel protein is under 1 µM; in the experiment on NF-κB, under 30 µM.

With `Cc1cc2oc3nc(=O)[nH]c(=O)c-3cc2cc1F` [Compound 27, 7-fluoro-8-methyl-2H-chromeno[2,3-d]pyrimidine-2,4(3H)-dione], the half-inhibitory concentration (IC50) was under 0.5 µM at c-Rel protein and under 5 µM with NF-κB.

As for `CCOc1cc2oc3nc(=O)[nH]c(=O)c-3cc2cc1F` [Compound 28, 8-ethoxy-7-fluoro-2H-chromeno[2,3-d]pyrimidine-2,4(3H)-dione], the half-maximal inhibitory concentration (IC50) on c-Rel protein is under 0.5 µM; with NF-κB it was under 5 µM.

As to `CCCCOc1cc2oc3nc(=O)[nH]c(=O)c-3cc2cc1F` [Compound 29], the figures for the concentration for half-maximal inhibition (IC50) at c-Rel protein and with NF-κB were under 0.5 µM and under 5 µM, respectively.

For `CCCCCOc1cc2oc3nc(=O)[nH]c(=O)c-3cc2cc1F` [Compound 30], the values for the IC50 at c-Rel protein and in the experiment on NF-κB were under 0.5 µM and under 10 µM, respectively.

Consider `CCCCCCOc1cc2oc3nc(=O)[nH]c(=O)c-3cc2cc1F` [Compound 31], for which the results for the half-inhibitory concentration (IC50) on c-Rel protein and with NF-κB were under 0.5 µM and under 5 µM, respectively.

For the compound `CCCCCCCOc1cc2oc3nc(=O)[nH]c(=O)c-3cc2cc1F` [Compound 32], the IC50 on c-Rel protein was under 0.5 µM; with NF-κB, under 5 µM.

In the case of `CC(C)CCOc1cc2oc3nc(=O)[nH]c(=O)c-3cc2cc1F` [Compound 33], the IC50 at c-Rel protein is under 0.5 µM; in the experiment with NF-κB it was under 3 µM.

For the compound `CC(C)(C)CCOc1cc2oc3nc(=O)[nH]c(=O)c-3cc2cc1F` [Compound 34], the concentration for half-maximal inhibition (IC50) on c-Rel protein was under 0.5 µM; in the experiment with NF-κB it was 10 µM.

Consider `CC(C)CCCOc1cc2oc3nc(=O)[nH]c(=O)c-3cc2cc1F` [Compound 35], for which the IC50 on c-Rel protein was under 1 µM; in the experiment on NF-κB, under 10 µM.

Take `CC(C)(C)COc1cc2oc3nc(=O)[nH]c(=O)c-3cc2cc1F` [Compound 36]: the IC50 was under 0.5 µM at c-Rel protein and under 10 µM in the experiment with NF-κB.

As to `CCCCCCOc1cc2oc3nc(=O)[nH]c(=O)c-3cc2cc1Cl` [Compound 37], the figures for the IC50 at c-Rel protein and in the experiment with NF-κB were under 0.5 µM and under 20 µM, respectively.

`CC(C)COc1cc2oc3nc(=O)[nH]c(=O)c-3cc2cc1Cl` [Compound 38]: the IC50 on c-Rel protein was under 0.5 µM; with NF-κB, under 20 µM.

For the compound `CCCCCOc1ccc2cc3c(=O)[nH]c(=O)nc-3oc2c1Cl` [Compound 39], the half-inhibitory concentration (IC50) was under 0.5 µM at c-Rel protein and under 3 µM in the experiment with NF-κB.

As to `CC(C)CCOc1ccc2cc3c(=O)[nH]c(=O)nc-3oc2c1Cl` [Compound 40], the values for the half-maximal inhibitory concentration (IC50) at c-Rel protein and in the experiment with NF-κB were under 0.5 µM and 5 µM, respectively.

Turning to `CC(C)(C)CCOc1ccc2cc3c(=O)[nH]c(=O)nc-3oc2c1Cl` [Compound 41], the half-inhibitory concentration (IC50) at c-Rel protein is under 0.5 µM; with NF-κB it was under 10 µM.

For `CCCCCCCOc1ccc2cc3c(=O)[nH]c(=O)nc-3oc2c1Cl` [Compound 42], the IC50 at c-Rel protein was under 0.5 µM; with NF-κB, under 10 µM.

Consider `CCCCOc1ccc2cc3c(=O)[nH]c(=O)nc-3oc2c1Cl` [Compound 43], for which the concentration for half-maximal inhibition (IC50) was under 0.5 µM at c-Rel protein and under 3 µM in the experiment on NF-κB.

The record behind these values is patent US10226464B2, “Small molecule NF-κB inhibitors” (ImmuneTarget, Inc., priority 2015, dated 2019).
